“Also recorded” adds a separate entry of the source.
Assays:
PTH receptor = target: T1, PTH receptor (Homo sapiens, UniProt Q03431); conditions: bone-related activities; relative to native 84 amino-acid hormone; cited from earlier work
T1 sequence (Q03431 27-593): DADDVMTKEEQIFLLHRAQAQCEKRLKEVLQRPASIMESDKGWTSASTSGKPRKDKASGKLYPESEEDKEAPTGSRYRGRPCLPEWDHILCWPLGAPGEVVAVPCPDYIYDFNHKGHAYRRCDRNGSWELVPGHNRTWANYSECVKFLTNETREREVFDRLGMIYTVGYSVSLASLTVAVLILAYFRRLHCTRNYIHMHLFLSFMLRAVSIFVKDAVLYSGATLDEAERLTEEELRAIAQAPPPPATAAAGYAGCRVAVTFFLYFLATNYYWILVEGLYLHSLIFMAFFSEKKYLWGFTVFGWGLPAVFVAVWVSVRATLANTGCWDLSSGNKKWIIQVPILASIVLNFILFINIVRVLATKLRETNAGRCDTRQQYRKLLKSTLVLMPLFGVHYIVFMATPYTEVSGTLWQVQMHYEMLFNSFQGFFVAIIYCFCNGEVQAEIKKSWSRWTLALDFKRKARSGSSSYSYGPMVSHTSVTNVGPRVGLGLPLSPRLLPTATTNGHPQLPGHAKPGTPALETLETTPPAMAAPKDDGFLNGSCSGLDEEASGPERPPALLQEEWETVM

[1] = system: adult C3H mice with murine CCL-11 (NCTC clone 2472) osteolytic sarcoma cells injected into the distal femur; assay: Spontaneous limb use in animal model for metastatic bone disease; type: in vivo; conditions: metastatic bone tumor animals, day 14
Experimental: (§1) An animal model for metastatic bone disease was established in adult C3H mice with murine sarcoma cells as described in Honore, et al., Neuroscience. (2000) 98(3):585-98 (see also Clohisy, et al. J Orthop Res. (1996) 14(3):396-402). In brief, murine CCL-11 (NCTC clone 2472) osteolytic sarcoma cells were injected into the distal femur. The injection site was closed with dental grade amalgam. Wounds were closed with wound clips. Wound clips were removed at day 6 to prevent interference with behavioral testing. Sham-injected and sarcoma-injected mice received daily subcutaneous injections of either 10 μl/kg vehicle or 10 μl/kg vehicle containing PTH (1-34) at 80 μg/ml concentration beginning after testing and radiographs were taken 6 d after injection of sarcoma cells. Treatment with PTH (1-34) or vehicle ended 14 d after injection, when final behavioral testing was done and the animals sacrificed.
Spontaneous limb use was assessed as described by Luger et al (2001). The mouse was placed in an empty mouse pan and observed while walking across the pan in a continuous motion. Limping and/or guarding behavior of the right (sarcoma treated) hindlimb was rated on the following scale: 0=complete lack of use, 1=partial non-use, 2=limping and guarding, 3=limping, 4=normal walking.

[2] = system: adult C3H mice with murine CCL-11 (NCTC clone 2472) osteolytic sarcoma cells injected into the distal femur; assay: Radiological analysis of bone density in animal model for metastatic bone disease; type: in vivo
Experimental: as §1
[…] Mice were lightly anesthetized to prevent movement during the x-ray. The radiographs of the mouse femurs were scanned at maximal resolution (2400 dpi) and saved in digital grayscale format (TIFF). The grayscale levels were standardized for all radiographs by setting the amalgam region to white (grayscale value of 255) and the lower limit of the grayscale was set to the darkest pixels of the scanned image. The grayscale values correspond to the luminosity of the scanned images.
The images were analyzed with Metamorph (Universal Imaging Corp, West Chester, Pa.). The bones were divided into 3 equal regions. Data were taken from the lower region at the site were sarcoma cells were injected. Thresholding was standardized to include all pixels with grayscale values between 2 to 76. Since grayscale values are related to luminosity, an increase in the threshold area represents an increase in darker, or lower density, bone area. The integrated intensity values for the regions were determined with Metamorph. Significant decreases in the intensity of a region indicates a significant reduction in bone density. […]

[3] = system: adult C3H mice with murine CCL-11 (NCTC clone 2472) osteolytic sarcoma cells injected into the distal femur; assay: Tactile allodynia (von Frey paw withdrawal threshold) in animal model for metastatic bone disease; type: in vivo; conditions: metastatic bone tumor animals, day 14
Experimental: as §1, with “Treatment with PTH (1-34) or vehicle ended 14 d after injection, when final behavioral testing was done and the animals sacrificed.” left out
Tactile allodynia was determined in the manner described by Chaplan et al. J Neurosci Methods (1994) 53(1):55-63. Paw withdrawal threshold was determined in response to probing with calibrated von Frey filaments. […] The 50% paw withdrawal threshold was determined by the non-parametric method of Dixon (Dixon, Annu Rev Pharmacol Toxicol 20:441-462, 1980). […] The 50% paw withdrawal threshold was determined as (10^[Xf+kδ])/10,000, where Xf=the value of the last von Frey filament employed, k=Dixon value for the positive/negative pattern, and δ=the mean (log) difference between stimuli. […]

[4] = system: adult C3H mice with murine CCL-11 (NCTC clone 2472) osteolytic sarcoma cells injected into the distal femur; assay: Flinching and guarding behavior in animal model for metastatic bone disease; type: in vivo; conditions: metastatic bone tumor animals, day 14
Experimental: as §1
To assess flinching and guarding behavior, animals were placed in raised plexiglass chambers with a wire grid floor for observation of flinching and guarding of the right hindlimb. The mice were allowed to acclimate to the chamber for 20 minutes. Guarding and flinching behaviors of each mouse were measured for 2 minutes. The number of flinches were counted, and the time spent guarding the foot (the foot is lifted off of the floor) was measured.

rats = conditions: rat, in vivo; cited from earlier work

## PTH(1-25): carboxyl-terminal truncation of PTH(1-34) (SVSEIQLMHNLGKHLNSMERVEWLR; UniProt P01270 32-56, looked up, fragment)
PTH receptor
  agonist activity of PTH fragment: essentially inactive

## PTH(1-34): truncated form of parathyroid hormone, residues 1-34; PTH receptor agonist tested in the mouse model (SVSEIQLMHNLGKHLNSMERVEWLRKKLQDVHNF; listed as Homo sapiens)
[1]
  limb use: ameloriated pain
[1]; listed as PTH (1-34)
  limb use: returned to near normal levels
[2]; normal (sham-injected) animals, daily s.c. PTH(1-34), day 14
  bone density (optical density of x-ray radiographs): some bone density increase
[2]; sarcoma bearing animals, daily s.c. from day 6, day 14
  bone density (optical density of x-ray radiographs): near normal bone density
[2]; sarcoma bearing animals, day 17, versus normal untreated animals
  bone density (optical density of x-ray radiographs): increase in density over that of normal untreated animals
[3]
  tactile hypersensitivity (evoked pain): not effected
[3]; listed as PTH (1-34)
  tactile hypersensitivity (evoked pain): did not effect
[4]
  limb guarding: ameloriated pain; also recorded: significantly reduced
  spontaneous pain (spontaneous flinching): ameloriated pain

## teriparatide acetate
rats
  risk of osteosarcoma (a malignant bone tumor): increased risk of osteosarcoma
